Results as given in patent US12312370B2, “Immunoproteasome inhibitors” (Principia Biopharma Inc., priority 2017, dated 2025).
Where two headings read alike, the source gives them in different places.

Tests used:
[1] = molecular target: immunoproteasome LMP7/B5i subunit (Homo sapiens, UniProt P28062); assay: Caliper-based proteasome enzymatic activity assay, LMP7; assay type: biochemical
[2] = molecular target: constitutive proteasome β5c unit (Homo sapiens, UniProt P28074); assay: Caliper-based proteasome enzymatic activity assay, β5c; assay type: biochemical; settings: human recombinant constitutive proteasome 0.3 nM, FAM-labeled peptide substrate 1 μM, rt 3 h; read-out: β5c subunit IC50
[3] = human recombinant immunoproteasome 0.3 nM, FAM-labeled peptide substrate 1 μM, rt 3 h, read-out: LMP7 subunit IC50

| IC50 [1, 3] [nM] | IC50 [2] [nM] | Structure (SMILES) | IC50 [1] [nM] |
| --- | --- | --- | --- |
| 1.8 | 1140 | CC(C)(C=C(C#N)C(=O)N1CC[C@H](OC(=O)N[C@@H](Cc2ccccc2)B(O)O)C1)N1CCC(F)(F)C1 [Example 89, ((R)-1-(((((S)-1-(2-cyano-4-(3,3-difluoropyrrolidin-1-yl)-4-methylpent-2-enoyl)pyrrolidin-3-yl)oxy)carbonyl)amino)-2-phenylethyl)boronic acid] |  |
| 1.3 | 1280 | CC1(C)CN(C(C)(C)C=C(C#N)C(=O)N2CCCC[C@@H](OC(=O)N[C@@H](Cc3ccccc3)B(O)O)C2)CCO1 [Example 136, ((R)-1-(((((R)-1-(2-cyano-4-(2,2-dimethylmorpholino)-4-methylpent-2-enoyl)azepan-3-yl)oxy)carbonyl)amino)-2-phenylethyl)boronic acid] |  |
| 5.6 | 2500 | CC(C)(C=C(C#N)C(=O)N1CCC[C@H](OC(=O)N[C@@H](Cc2ccccc2)B(O)O)C1)N1CCN2C(=O)OC[C@H]2C1 [Example 98, ((R)-1-(((((S)-1-(2-cyano-4-methyl-4-((R)-3-oxotetrahydro-3H-oxazolo[3,4-a]pyrazin-2(1H)-yl)pent-2-enoyl)piperidin-3-yl)oxy)carbonyl)amino)-2-phenylethyl)boronic acid] |  |
| 2.7 | 734 | C[C@@H]1CN(C(C)(C)C=C(C#N)C(=O)N2CCCC[C@@H](OC(=O)N[C@@H](Cc3ccccc3)B(O)O)C2)C[C@@H](C)O1 [Example 129] |  |
| 238 | > 5000 | CC1(OC(=O)N[C@@H](Cc2ccc(F)cc2)B(O)O)CCCN(C(=O)C(C#N)=CC(C)(C)N2CCC(F)(F)C2)C1 (mixture of isomers) [Example 94, ((1R)-1-((((1-(2-cyano-4-(3,3-difluoropyrrolidin-1-yl)-4-methylpent-2-enoyl)-3-methylpiperidin-3-yl)oxy)carbonyl)amino)-2-(4-fluorophenyl)ethyl)boronic acid] |  |
| 148 | > 5000 | C=CC(=O)N1CCC[C@H](OC(=O)N[C@@H](Cc2ccc(C(F)(F)F)cc2)B(O)O)C1 [Example 66, ((R)-1-(((((S)-1-acryloylpiperidin-3-yl)oxy)carbonyl)amino)-2-(4-(trifluoromethyl)phenyl)ethyl)boronic acid] |  |
| 1.7 | 715 | Cc1ccc(C[C@H](NC(=O)OC[C@H]2CCCN(C(=O)C(C#N)=CC(C)(C)N3CCC(F)(F)C3)C2)B(O)O)cc1 [Example 52, ((R)-1-(((((S)-1-(2-cyano-4-(3,3-difluoropyrrolidin-1-yl)-4-methylpent-2-enoyl)piperidin-3-yl)methoxy)carbonyl)amino)-2-(p-tolyl)ethyl)boronic acid] |  |
| 27.1 | 4700 | C=CC(=O)N1C[C@@H](F)[C@H](OC(=O)N[C@@H](Cc2ccccc2)B(O)O)C1 [Example 102, ((R)-1-(((((3R,4R)-1-acryloyl-4-fluoropyrrolidin-3-yl)oxy)carbonyl)amino)-2-phenylethyl)boronic acid] |  |
| 78.3 | 2840 | C=CC(=O)N1C[C@H](OC(=O)N[C@@H](Cc2ccccc2)B(O)O)[C@@H](F)C1 [Example 110, ((R)-1-(((((3S,4S)-1-acryloyl-4-fluoropyrrolidin-3-yl)oxy)carbonyl)amino)-2-phenylethyl)boronic acid] |  |
| 2.2 | 3180 | CC(C)(C=C(C#N)C(=O)N1CCCC[C@@H](OC(=O)N[C@@H](Cc2ccccc2)B(O)O)C1)N1CCOCC1 (single isomer, unassigned) [Example 103] |  |
| 129 | > 5000 | C=C(F)C(=O)N1C2CCC1(COC(=O)N[C@@H](Cc1ccc(F)cc1)B(O)O)CC2 [Example 75, (R)-(1-((((7-(2-fluoroacryloyl)-7-azabicyclo[2.2.1]heptan-1-yl)methoxy)carbonyl)amino)-2-(4-fluorophenyl)ethyl)boronic acid] |  |

Continued, molecule first:

| Structure (SMILES) | IC50 [1, 3] [nM] | IC50 [2] [nM] | IC50 [1] [nM] |
| --- | --- | --- | --- |
| CC(C)(C=C(C#N)C(=O)N1CCC[C@@H](NC(=O)N[C@@H](Cc2ccccc2)B(O)O)C1)N1CCC(F)(F)C1 [Example 101, ((R)-1-(3-((R)-1-(2-cyano-4-(3,3-difluoropyrrolidin-1-yl)-4-methylpent-2-enoyl)piperidin-3-yl)ureido)-2-phenylethyl)boronic acid] | 145 | 3920 |  |
| CC(C)(C=C(C#N)C(=O)N1CC[C@H](COC(=O)N[C@@H](Cc2ccccc2)B(O)O)C1)N1CCC(F)(F)C1 [Example 95, ((R)-1-(((((S)-1-(2-cyano-4-(3,3-difluoropyrrolidin-1-yl)-4-methylpent-2-enoyl)pyrrolidin-3-yl)methoxy)carbonyl)amino)-2-phenylethyl)boronic acid] | 6.9 | 2640 |  |
| CC(C)(C=C(C#N)C(=O)N1C2CCC1(COC(=O)N[C@@H](Cc1ccccc1)B(O)O)CC2)N1CC2CC(C1)O2 [Example 132, ((1R)-1-((((7-(4-(6-oxa-3-azabicyclo[3.1.1]heptan-3-yl)-2-cyano-4-methylpent-2-enoyl)-7-azabicyclo[2.2.1]heptan-1-yl)methoxy)carbonyl)amino)-2-phenylethyl)boronic acid] | 0.8 | 1080 |  |
| CC(C)(C=C(C#N)C(=O)N1CCC[C@H](NC(=O)N[C@@H](Cc2ccccc2)B(O)O)C1)N1CCC(F)(F)C1 [Example 112, ((R)-1-(3-((S)-1-(2-cyano-4-(3,3-difluoropyrrolidin-1-yl)-4-methylpent-2-enoyl)piperidin-3-yl)ureido)-2-phenylethyl)boronic acid] | 143 | 2240 |  |
| CC(C)C=C(C#N)C(=O)NCCCC[C@H](NC(=O)c1cc(Cl)ccc1Cl)C(=O)N[C@@H](CC(C)C)B(O)O [Example 3, ((R)-1-((S)-6-(2-cyano-4-methylpent-2-enamido)-2-(2,5-dichlorobenzamido)hexanamido)-3-methylbutyl)boronic acid] | 29.6 | 8.5 |  |
| CC(C)(C=C(C#N)C(=O)N1CCC[C@@H](CC(=O)N[C@@H](Cc2ccccc2)B(O)O)C1)N1CCC(F)(F)C1 [Example 59, ((R)-1-(2-((S)-1-(2-cyano-4-(3,3-difluoropyrrolidin-1-yl)-4-methylpent-2-enoyl)piperidin-3-yl)acetamido)-2-phenylethyl)boronic acid] | 21 | 163 |  |
| CC(C)(C=C(C#N)C(=O)N1CCC[C@H](COC(=O)N[C@@H](Cc2ccccc2)B(O)O)C1)N1CCC(F)(F)C1 [Example 53, ((R)-1-(((((S)-1-(2-cyano-4-(3,3-difluoropyrrolidin-1-yl)-4-methylpent-2-enoyl)piperidin-3-yl)methoxy)carbonyl)amino)-2-phenylethyl)boronic acid] | 4.4 | > 5000 |  |
| CC(C)C=C(C#N)C(=O)N1CCC[C@@H]1COC[C@H](NCC(F)(F)F)C(=O)N[C@@H](Cc1coc2ccccc12)B(O)O [Example 31, ((R)-2-(benzofuran-3-yl)-1-((S)-3-(((R)-1-(2-cyano-4-methylpent-2-enoyl)pyrrolidin-2-yl)methoxy)-2-((2,2,2-trifluoroethyl)amino)propanamido)ethyl)boronic acid] | 11.6 | 39.4 |  |
| CC(C)(C=C(C#N)C(=O)N1CCCC[C@@H](OC(=O)N[C@@H](CC2=CCCC2)B(O)O)C1)N1CCOCC1 [Example 138, ((R)-1-(((((R)-1-(2-cyano-4-methyl-4-morpholinopent-2-enoyl)azepan-3-yl)oxy)carbonyl)amino)-2-(cyclopent-1-en-1-yl)ethyl)boronic acid] | 1.2 | > 5000 |  |
| CC(C)(C=C(C#N)C(=O)N1C[C@H](F)[C@H](OC(=O)N[C@@H](Cc2ccccc2)B(O)O)C1)N1CCC(F)(F)C1 [Example 111, ((R)-1-(((((3R,4S)-1-(2-cyano-4-(3,3-difluoropyrrolidin-1-yl)-4-methylpent-2-enoyl)-4-fluoropyrrolidin-3-yl)oxy)carbonyl)amino)-2-phenylethyl)boronic acid] | 1.9 | 140 |  |
| C[C@@H]1CN(C(C)(C)C=C(C#N)C(=O)N2C3CCC2(COC(=O)N[C@@H](Cc2ccccc2)B(O)O)CC3)CCO1 [Example 118, ((R)-1-((((7-(2-cyano-4-methyl-4-((R)-2-methylmorpholino)pent-2-enoyl)-7-azabicyclo[2.2.1]heptan-1-yl)methoxy)carbonyl)amino)-2-phenylethyl)boronic acid] | 1.9 | 1150 |  |
| CC(C)(C=C(C#N)C(=O)N1CC[C@H](COC(=O)N[C@@H](Cc2ccccc2)B(O)O)C1)N1CCOCC1 [Example 99, ((R)-1-(((((S)-1-(2-cyano-4-methyl-4-morpholinopent-2-enoyl)pyrrolidin-3-yl)methoxy)carbonyl)amino)-2-phenylethyl)boronic acid] | 19.3 | 3760 |  |
| CC(C)C=C(C#N)C(=O)N(C)c1cccc(C[C@H](NCC(F)(F)F)C(=O)N[C@@H](Cc2ccccc2)B(O)O)c1 [Example 26, ((R)-1-((S)-3-(3-(2-cyano-N,4-dimethylpent-2-enamido)phenyl)-2-((2,2,2-trifluoroethyl)amino)propanamido)-2-phenylethyl)boronic acid] | 11 | 362 |  |
| CC(C)(C=C(C#N)C(=O)N1CCC[C@@H]1CNC(=O)N[C@@H](Cc1coc2ccccc12)B(O)O)N1CCC(F)(F)CC1 [Example 49, ((R)-2-(benzofuran-3-yl)-1-(3-(((R)-1-(2-cyano-4-(4,4-difluoropiperidin-1-yl)-4-methylpent-2-enoyl)pyrrolidin-2-yl)methyl)ureido)ethyl)boronic acid] | 5.3 | 1810 |  |
| C=CC(=O)N1CCC[C@H](OC(=O)N[C@@H](Cc2ccc(F)cc2)B(O)O)C1 [Example 70, ((R)-1-(((((S)-1-acryloylpiperidin-3-yl)oxy)carbonyl)amino)-2-(4-fluorophenyl)ethyl)boronic acid] |  | > 5000 | 106 |
| CC(C)(C=C(C#N)C(=O)N1CCC[C@](C)(OC(=O)N[C@@H](Cc2ccccc2)B(O)O)C1)N1CCC(F)(F)C1 (single isomer, unassigned) [Example 92] | 42.2 | > 5000 |  |
